Consider one compound from US12714721B2, “Methods of treatment of a cytokine storm” (Loma Linda University Health, priority 2020, dated 2026).

The subject of the experiment is LPS-treated animals. Put plainly: Survival study of LPS-treated animals with teriflunomide. The class given is in vivo. The settings on record: 20 mg/kg of LPS i.p. and 4 mg of teriflunomide. How it is done:
A survival study was performed with sixteen animals per group of LPS-treated animals following no treatment and treatment with teriflunomide. The control group received 20 mg/kg of LPS i.p. and no treatment; whereas the teriflunomide group received 20 mg/kg of LPS and 4 mg of teriflunomide. None of the control animals lived up to 24 hours, whereas 6 of the teriflunomide treat animals lived out to 96 hours at which time they appeared normal. The P value for the difference was less than 0.0021. FIG. 20 is a graphical representation of the survival of LPS-treated animals following no treatment and treatment with teriflunomide. All of the animals were treated with 20 mg/kg of LPS i.p. Kaplan-Meier survival in response to LPS administration. Comparison of the trend of survival curve was done using the log-rank (Mantel-Cox) test (recommended), and ** p<0.01.

With `C/C(O)=C(\C#N)C(=O)Nc1ccc(C(F)(F)F)cc1` [teriflunomide], the Median survival (Kaplan-Meier) amounted to 48.00. The “animals that lived out to 96 hours” value (sixteen animals per group) is recorded as 6.
